Assay results published in patent US11091444B2, “Hydantoins that modulate BACE-mediated app processing” (BUCK INSTITUTE FOR RESEARCH ON AGING, priority 2013, dated 2021).
pIC50, pKd: −log10 of the molar value. Read-outs that look alike come from different tables or passages of the source.

Columns and labels:
[1] = test system: sAPP alpha; assay: Secondary screen: sAPP alpha; format: cell-based; conditions: for sAPP alpha: increase (↑); for sAPP (α/β): increase (↑) of ratio
[2] = test system: sAPP beta; assay: Secondary screen: sAPP beta; format: cell-based; conditions: decrease (↓)
[3] = biological target: TRX-eAPP575-624 (Homo sapiens (Human), UniProt P05067); assay: SPR (Biacore) binding to APP ectodomain fragment
Description: The binding affinity of the compounds for the ectodomain of APP was determined using SPR. […] The eAPP was crosslinked linked to the CM5 Biacore chips (GE Healthcare).
FC1 served as a reference cell following a mock immobilization with buffer alone. For all cells, the flow rate was 10 al per min. The chip was blocked with 1M ethanolamine (pH 8.5). […] Binding traces were recorded for each dilution with a binding phase of 60 seconds and a dissociation phase of 240 seconds. Each cycle was performed at 20° C. with a constant flow rate of 20 l/min. An additional 240 seconds of buffer flow at 60 al per min across the cells was applied as a regeneration phase to facilitate complete dissociation of the compound from the protein. The sensograms were obtained by subtraction of the reference and buffer signals using the Biacore T100 Evaluation software. The binding curves were modeled with the PRISM (Graphpad Inc).

[4] = biological target: PSGL-1-BACE1 (Homo sapiens (Human), UniProt P56817); assay: PSGL1-BACE cleavage in transfected HEK 293 cells (SEAP/lacZ); format: cell-based; conditions: APP-BACE vs PSGL1-BACE cleavage
Description: (§1) Briefly, in order to determine the PSGL-1-BACE1 IC50 IC50 HEK 293 cells were plated in 24 well plates and transiently cotransfected with either PSGL1/lacZ or NRG1/lacZ constructs using Lipofectamine 2000; manufacturer protocol was followed. Two hours after adding the DNA-lipid complex to the cells a BACE inhibitor was added to each well, then cells were incubated overnight at 37° C. and 5% CO2. Cultured medium was collected to determine NRG1 or PSGL1, and cells were lysed to measure lacZ levels. Sigma SEAP kit standard protocol was conducted on the cultured medium to detect levels of PSGL1 or NRG1. Promega kit instructions were followed to determine lacZ concentration. The ratio of PSGL1/lacz vs [BACE inhibitor] or were plotted to determine the BACE1-IC50 on each of the substrate using GraphPad Prism 5 (FIG. 6B).

[5] = test system: Aβ1-42; assay: Aβ1-42 ELISA in SH-SY5Y neuroblastoma cells; format: cell-based, human; conditions: for pIC50: Homo sapiens, SH-SY5Y, secondary screen
Description: SH-SY5Y neuroblastoma cells were seeded at 50,000 cells/well in a 96 wells plate for 24 h. Then their medium was changed for fresh medium supplemented with desired concentration of the hydantoin compound (e.g. compound 3). After 24 h, 20 al of the medium was added to 2 al of the complete protease inhibitor with 1 μM EDTA and kept at 4° C. until analysis using the ELISA assay below.
ELISA kits from Invitrogen were also used to quantify Aβ1-42 (KHB3544) in duplicate. For the Aβ 1-42 ultrasensitive ELISA, samples were diluted 1:2 (50 al CSF plus 50 μl kit-provided standard diluent buffer). Assays were performed according to manufacturer's instructions. In short, standards and samples were added to a plate pre-coated with a monoclonal capture antibody specific for the amino terminus of Hu Aβ. The samples were co-incubated with a rabbit detection antibody (Ab) specific for the carboxy terminus of the Aβ species being assayed for 3 hr at room temperature overnight at 4° (Aβ 1-42) with gentle rocking. After washing, bound rabbit Ab was detected using a horseradish peroxidase-labeled anti-rabbit secondary Ab. After washing again, bound HRP-anti rabbit Ab was detected colorimetrically (Spectramax 190, Molecular Devices) by the addition of a substrate solution. 1 mM 4-(2-Aminoethyl) benzenesulfonyl fluoride hydrochloride (AEBSF) protease inhibitor (101500, Calbiochem) was added to standards and samples.

[6] = biological target: NRG1-BACE1 (Homo sapiens (Human), UniProt P56817); assay: NRG1-BACE cleavage in transfected HEK 293 cells (SEAP/lacZ); format: cell-based
Description: as §1

[7] = test system: Aβ42; assay: Aβ lowering in NTg mice; format: in vivo; conditions: 1 mpk
Description: Compound 2 and other hydantoins were produced (see, e.g., compounds 1-5 pharmacokinetic evaluation of these hydantoins was determined in brain uptake assays using NTg mice (see, e.g., Table 1). It was also determined that Compound 1 lowered Aβ42 in the same animals at 5 mpk, while compound 3 lowered Aβ at 1 mpk.

Sequence of NRG1-BACE1 (P56817 46-501): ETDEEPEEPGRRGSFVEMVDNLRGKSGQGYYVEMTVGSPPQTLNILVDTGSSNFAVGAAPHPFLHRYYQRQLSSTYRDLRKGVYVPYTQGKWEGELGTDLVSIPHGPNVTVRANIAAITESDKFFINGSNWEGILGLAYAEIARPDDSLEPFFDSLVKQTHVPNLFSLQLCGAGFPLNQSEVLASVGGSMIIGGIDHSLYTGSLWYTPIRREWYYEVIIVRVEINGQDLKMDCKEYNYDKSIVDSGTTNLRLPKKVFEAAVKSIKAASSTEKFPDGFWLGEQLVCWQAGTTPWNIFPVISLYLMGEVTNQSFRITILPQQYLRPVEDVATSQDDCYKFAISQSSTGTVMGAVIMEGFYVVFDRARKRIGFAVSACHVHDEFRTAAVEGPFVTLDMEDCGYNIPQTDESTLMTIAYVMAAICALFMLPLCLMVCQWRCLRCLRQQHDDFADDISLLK
Sequence of TRX-eAPP575-624 (P05067 650-699): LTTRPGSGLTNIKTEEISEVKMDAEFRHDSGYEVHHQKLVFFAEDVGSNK
Sequence of PSGL-1-BACE1 (P56817 46-501): as the sequence (P56817 46-501) above

Row | SMILES | sAPP alpha [1] | sAPP (α/β) [1] | sAPP beta [2] | pKd [3] | Selectivity for APP over PSGL1 [4] [fold] | pIC50 [5] | Selectivity for APP over NRG1 ([6]; APP-BACE vs NRG1-BACE cleavage) [fold] | pIC50 ([6]; secondary screen, read-out: NRG1-BACD1 IC50) | Aβ lowering in vivo [7] | pKd ([3]; Table 1, SPR, read-out: APP binding Kd) | Inhibition of Aβ / Aβ42 production ([5]; SH-SY5Y cells)
1 | Cc1cc(C2(c3cccc(C(F)(F)F)c3)N=C(N)N(C)C2=O)ccc1OC(F)F (stereo not drawn) [FAH-28] | ↑ > 20% | ↑ > 50% | ↓ < 20% | – | – | – | – | – | – | – | –
2 | CN1C(=O)C(c2ccccc2)(c2cc(F)cc(F)c2)N=C1N (stereo not drawn) [FAH-1] | – | – | – | 5.30 | – | – | – | – | – | – | –
3 | Cc1cc(C2(c3cccc(F)c3)N=C(N)N(C)C2=O)ccc1OC(F)F (stereo not drawn) [FAH-17, 2-amino-4-(4-(difluoromethoxy)-3-methylphenyl)-4-(3-fluorophenyl)-1-methyl-1H-imidazol-5(4H)-one] | ↑ > 20% | ↑ > 100% | ↓ < 50% | – | > 200 | < 6.00 | > 10 | < 6.00 | – | – | –
4 | Cc1cc(C2(c3cc(F)cc(F)c3)N=C(N)N(C)C2=O)ccc1OC(F)F (stereo not drawn) [FAH-3, 2-amino-4-(4-(difluoromethoxy)-3-methylphenyl)-4-(3,5-difluorophenyl)-1-methyl-1H-imidazol-5(4H)-one] | ↑ > 10% | ↑≈10% | ↓ < 20% | – | – | < 6.00 | – | – | lowered Aβ | 6.52 | inhibition of Aβ production
5 | Cc1cccc(C2(c3ccc(OC(F)F)c(C)c3)N=C(N)N(C)C2=O)c1 (stereo not drawn) [FAH-27, 2-amino-4-(4-(difluoromethoxy)-3-methylphenyl)-1-methyl-4-(m-tolyl)-1H-imidazol-5(4H)-one] | ↑ > 30% | ↑ > 100% | ↓ < 30% | – | – | – | – | – | – | – | –
6 | Cc1cc(C2(c3cccc(Cl)c3)N=C(N)N(C)C2=O)ccc1OC(F)F (stereo not drawn) [FAH-23, 2-amino-4-(3-chlorophenyl)-4-(4-(difluoromethoxy)-3-methylphenyl)-1-methyl-1H-imidazol-5(4H)-one] | ↑ > 20% | ↑ > 50% | ↓ < 20% | – | – | – | – | – | – | – | –
7 | Cc1cc(F)cc(C2(c3ccc(OC(F)F)c(C)c3)N=C(N)N(C)C2=O)c1 (stereo not drawn) [FAH-22, 2-amino-4-(4-(difluoromethoxy)-3-methylphenyl)-4-(3-fluoro-5-methylphenyl)-1-methyl-1H-imidazol-5(4H)-one] | ↑ > 10% | ↑≈50% | ↓ < 20% | – | – | – | – | – | – | – | –
